The values below come from patent publication US8399005B2, “Use of nitric oxide to enhance the efficacy of silver and other topical wound care agents” (University of North Carolina at Chapel Hill, priority 2007, dated 2013).

For series [1], the system named is P. aeruginosa. Kind of series: Bactericidal assays under static conditions (PBS). It counts as cell-based. As to the method:
Bactericidal assays under static conditions. […] Silica nanoparticles (NO-releasing and control), PROLI/NO, and proline were added to separate aliquots of the bacterial suspension over a concentration range optimized for each system. After 1 h incubation at 37° C. with gentle agitation, 100-μL aliquots from each suspension were plated on tryptic soy agar. After overnight incubation at 37° C., the colonies on each plate were counted, allowing for calculation of the number of viable P. aeruginosa cells in each vial at the time of plating.

The test system of series [2] is P. aeruginosa. The experiment in a line: Time-based bactericidal assays under nutrient growth conditions (TSB). It counts as cell-based. The arrangement: amount of NO per mL required for complete bacterial killing: unit not given here. As to the method:
Time-based bactericidal assays under nutrient growth conditions. To test the temporal efficacy of the NO-releasing silica nanoparticles, time-based antibacterial assays were conducted in TSB nutrient media. P. aeruginosa was cultured in TSB to a concentration of 10^8 CFU·mL^−/1 and diluted to 10^4 CFU·mL^−1 in additional TSB. […] Bacterial viability was determined as described above after incubating the plates overnight at 37° C.

The test system of series [3] is S. aureus. Kind of series: Fractional bactericidal concentration (FBC120) time-based synergistic killing assay in TSB. Type of series: cell-based.
Experimental: (§1) Determining the Minimum Bactericidal Concentration (MBC120). […] This value, the MBC120, was acquired by growing S. aureus to an OD600=0.075 in TSB. At this value the concentration was determined to be 10^8 CFUs/mL. In order to achieve a final bacterial concentration of 10^4, four ten-fold dilutions were performed in TSB. […] For proli/NO, 1 mL of 2×10^4 CFUs/mL bacterial solution was added to various masses (0.5-16 mg). […] The plates were incubated overnight at 37° C. and enumerated. The graphs present the total CFUs present in each tube as determined by counting each colony and multiplying that number by 100 to account for both 10-fold dilutions. Determination of Fractional Bactericidal Concentration (FBC120). […] S. aureus was cultured to a concentration of 10^8 CFUs/mL and the concentration was adjusted to 2×10^4 CFUs/mL in TSB. […] After incubating the plates overnight at 37° C., viability was determined by counting the number of distinct colonies on each plate and multiplying this number by 100 to account for the two 10-fold dilutions. The numerical value of the FBC120 was obtained according to the equation:
A further series deals with L929 cells. The experiment in a line: L929 propidium iodide (PI) viability assay (Example 1). Particulars: 2 mg/mL, L929, KRH buffer. It counts as cell-based, mouse. As to the method:
[formula] L929 propidium iodide (PI) viability assay. L929 cells were plated on 24-well tissue culture treated dishes (BD Bioscience #353047) at a density of 3.0×10^5 cells/ml (150×10^3 cells/well) and incubated overnight at 37° C., in 5% CO2/95% air for 18-20 h. For the PI assay, the incubation buffer was aspirated from each of the wells and replaced with 500 μL of Krebs-Ringer-HEPES (KRH) buffer containing (mM): 115 NaCl, 5 KCl, 1 CaCl2, 1 KH2PO4, 1.2 MgSO4, 25 HEPES, pH 7.4, supplemented with 30 μM of PI. The fluorescence of the cells was determined in a concentration-dependent manner against both proli/NO and proline, as monitored using a FluoStar Galaxy plate reader (BMG Labtech, Durham, N.C.) with excitation and emission filters set at 544 and 640 nm, respectively. Fluorescence was acquired at 0 and 60 min. An additional 20 min incubation of cells with 40 μM digitonin was required to completely permeabilize plasma membranes and achieve maximum PI fluorescence. Cell viability was represented as an increase in PI fluorescence from each well expressed as percentage of the maximum fluorescence obtained in cells treated with digitonin (100% cell death). S. aureus cytotoxicity assay in PBS. […] Toxicity was measured by aliquoting this bacterial solution into eppendorf tubes containing proli/NO, incubating these solutions for one hour at 37° C., and then plating them on TSA plates. […]

Series [4] is classed as physicochemical. The protocol: We synthesized proli/NO by subjecting a 2:1 molar ratio of sodium methoxide in methanol and proline to 5 atm of NO for 3 days. To the resulting solution excess diethyl ether was added. After vacuum removal of solvent a white solid was obtained. Its NO release was monitored using chemiluminescence; we determined that proli/NO releases a total of 1.8 μmol NO/mg in less than 70 s when exposed to PBS at pH 7.4. Release is initiated quickly by protonation of proline's cyclic amine or slowly by thermal degradation. In the MBC120 determination, proli/NO was kept on ice until exposure to bacterial solution to prevent thermal NO release. Proli/NO's MBC120 is 16 mg/mL against S. aureus. […] See Turner, T. D., et al., J Pharm. Pharmacol. 41, 775-80 (1989). […] Synergy is determined based on inhibition beyond what would be expected for each alone. […] More specifically, the MBC was used instead of the MIC, once again because we are interested in reducing a bacterium's chances of becoming resistant to the drug employed by developing conditions that will lead to a quick kill. Additionally, reducing the bacterial burden in wound beds quickly is paramount to prevent infections. […] See Feng Q. L. et al., J. Biomed. Mater. Res. 52, 662-668 (2000).
Nitric oxide release measurements. Nitric oxide release from both the diazeniumdiolate-modified silica nanoparticles and PROLI/NO was measured in deoxygenated phosphate-buffered saline (PBS, 0.01 M; 37° C.) at pH 7.4 using a Sievers NOA 280i chemiluminescence NO analyzer (Boulder, Colo.). Nitric oxide released from the donors was transported to the analyzer by a stream of N2 (70 mL·min^−1) passed through the reaction cell. The instrument was calibrated with air passed through a NO zero filter (0 ppm NO) and a 24.1 ppm NO standard gas (balance N2).

The next series relates to P. aeruginosa cells. The experiment in a line: Confocal microscopy with DAF-2 DA NO probe and propidium iodide. It counts as cell-based. The text has this: Once inside the bacterial cell membrane, the DAF-2 DA probe is hydrolyzed to DAF-2, which is membrane-impermeable. […] Cells loaded with DAF-2 were imaged in the presence of propidium iodide (PI), which is a nucleic acid viability dye that only enters cells with compromised membranes, and fluoresces red once inside the cells. Thus, red fluorescence is indicative of cell death. […] After a peak intracellular intensity of DAF-2 fluorescence was reached, the red fluorescence of the PI began to increase, indicating entry of the PI into the cells due to membrane disruption and cell death.

Series [5] has as its system S. aureus. Particulars: TSB.
Experimental: as §1
The next series has as its system mammalian cells. Particulars: 200 ppm for 4 hours; cited from earlier work.
[6] abbreviates: amount of NO equal to 100 μg·mL^−1 nanoparticles.

Turning to `NCCNCCN` [diethylenetriamine backbone, diethylenetriamine], in the series with P. aeruginosa [1] (data not shown), the “toxicity of backbone alone to P. aeruginosa” value is “considerable toxicity”.

Consider `O=C(O)[C@@H]1CCCN1` [proline], for which the “killing of P. aeruginosa by controls depleted of NO” value with P. aeruginosa [1] (over the concentration ranges tested) is on record as “no killing”. Further, in the series on P. aeruginosa [1] (up to 20 mg·mL^−1, the highest concentrations tested), the “toxicity to P. aeruginosa” value is given as “no toxicity”. Further, the “growth of P. aeruginosa exposed to control solutions” value with P. aeruginosa [2] (TSB, 2 h) is “proliferated”.

`O=C([O-])C1CCCN1[N+]([O-])=N[O-].[Na+].[Na+]` (stereo not shown) [proli/NO]: the “toxicity to S. aureus, agent alone” value with S. aureus [3] (8 mg/mL proli/NO alone) is recorded as “non-toxic”. Further, in the series on S. aureus [3] (2/16 mg/mL proli/NO, 21.9/[…] AgSD), the “fraction of MBC120 used in the combination” value was determined as 0.125. The “toxicity to dermal fibroblasts” value in the series on L929 cells was “non-toxic”. Further, in series [4] (PBS at pH 7.4 (Example 1)), the “time in which the total NO is released” value is on record as “less than 70 s” and the “total NO released” value was found to be 1.8 μmol NO/mg. Moreover, the “total amount of NO released (t[NO])” value in series [4] (PBS pH 7.4, 37° C. (Example 2)) is reported as 1.8 μmol NO·mg^−1. Besides, in series [4] (after immersion in / addition to buffer), the “time required to reach the maximum NO flux (tm)” value is listed as “approximately 1 min”. The “maximum NO flux ([NO]m)” value in series [4] (not told, pH 7.4) is listed as above 145000 ppb·mg^−1. In addition, the “NO release half life (t1/2)” value in series [4] (pH 7.4) was below 2 min. For the same compound, in the series with P. aeruginosa [1] (PBS, 1 h), the “amount of NO required per mL for a 3 log reduction in bacterial viability” value is listed as 4.5 μmol NO and the “concentration completely bactericidal (3 logs of killing)” value is given as 2.5 mg·mL^−1. In addition, the “mass required relative to silica nanoparticles for complete killing” value in the series with P. aeruginosa [1] (PBS, by mass) was “approximately 35 times”. In addition, the “time to complete killing” value in the series on P. aeruginosa [2] (12 mg·mL^−1, TSB) is on record as 30 min. In addition, the “time of bacterial killing” value in the series on P. aeruginosa [2] (12 and 20 mg·mL^−1, TSB) is reported as below 30 min. In addition, in the series with P. aeruginosa [2] (TSB), the “amount of NO per mL required for complete bacterial killing” value is 21.6. Further, in the series on P. aeruginosa cells (5 mg·mL^−1), the “P. aeruginosa cell death (PI fluorescence)” value is given as “rapid cell death” and the “intracellular DAF-2 fluorescence prior to cell death” value is “still not observed”. Besides, in the series on P. aeruginosa cells (setting [6]), the “P. aeruginosa cell death (PI fluorescence)” value is recorded as “cell death was not observed” and the “intracellular DAF-2 fluorescence” value was “no intracellular DAF-2 fluorescence was observed”. Moreover, the “MBC120 (concentration for three logs of killing within 120 min)” value in the series on S. aureus [5] is given as 16 mg/mL.

For nitric oxide [NO gas], in the series on mammalian cells, the “toxicity to mammalian cells” value is on record as “not toxic”.
